Read-outs that look alike come from different tables or passages of the source.
What was measured:
[1] = target: T1, N-terminally FLAG-tagged PARP2 (amino acids 1-583) (Homo sapiens, UniProt Q9UGN5); test: PARP2 probe displacement HTRF assay; format: binding; settings: binned Kd
T1 construct: N-terminally FLAG-tagged PARP2 (amino acids 1-583)
Protocol: Data analysis was performed identical as for PARP1.

[2] = target: T2, full length N-terminally FLAG-tagged PARP1 (Homo sapiens, UniProt P09874); test: PARP1 probe displacement HTRF assay; settings: for Selectivity: PARP1 over PARP2, ratio Kd (PARP2)/Kd (PARP1); for Kd: binned Kd
[3] = target: T2, full length N-terminally FLAG-tagged PARP1; test: PARP1 biochemical DELFIA assay (auto-PARylation); parameters: recombinant full length human N-terminally FLAG-tagged PARP1
[4] = read-out: PARP1 HTRF, probe displacement HTRF
[5] = binned IC50, biochemical auto-PARylation assay
[6] = PARP1 HTRF, PARP1 probe displacement HTRF
[7] = binned IC50, PARP1 biochemical DELFIA assay
[8] = PARP1 HTRF, probe displacement HTRF

T2 sequence (P09874 whole entry): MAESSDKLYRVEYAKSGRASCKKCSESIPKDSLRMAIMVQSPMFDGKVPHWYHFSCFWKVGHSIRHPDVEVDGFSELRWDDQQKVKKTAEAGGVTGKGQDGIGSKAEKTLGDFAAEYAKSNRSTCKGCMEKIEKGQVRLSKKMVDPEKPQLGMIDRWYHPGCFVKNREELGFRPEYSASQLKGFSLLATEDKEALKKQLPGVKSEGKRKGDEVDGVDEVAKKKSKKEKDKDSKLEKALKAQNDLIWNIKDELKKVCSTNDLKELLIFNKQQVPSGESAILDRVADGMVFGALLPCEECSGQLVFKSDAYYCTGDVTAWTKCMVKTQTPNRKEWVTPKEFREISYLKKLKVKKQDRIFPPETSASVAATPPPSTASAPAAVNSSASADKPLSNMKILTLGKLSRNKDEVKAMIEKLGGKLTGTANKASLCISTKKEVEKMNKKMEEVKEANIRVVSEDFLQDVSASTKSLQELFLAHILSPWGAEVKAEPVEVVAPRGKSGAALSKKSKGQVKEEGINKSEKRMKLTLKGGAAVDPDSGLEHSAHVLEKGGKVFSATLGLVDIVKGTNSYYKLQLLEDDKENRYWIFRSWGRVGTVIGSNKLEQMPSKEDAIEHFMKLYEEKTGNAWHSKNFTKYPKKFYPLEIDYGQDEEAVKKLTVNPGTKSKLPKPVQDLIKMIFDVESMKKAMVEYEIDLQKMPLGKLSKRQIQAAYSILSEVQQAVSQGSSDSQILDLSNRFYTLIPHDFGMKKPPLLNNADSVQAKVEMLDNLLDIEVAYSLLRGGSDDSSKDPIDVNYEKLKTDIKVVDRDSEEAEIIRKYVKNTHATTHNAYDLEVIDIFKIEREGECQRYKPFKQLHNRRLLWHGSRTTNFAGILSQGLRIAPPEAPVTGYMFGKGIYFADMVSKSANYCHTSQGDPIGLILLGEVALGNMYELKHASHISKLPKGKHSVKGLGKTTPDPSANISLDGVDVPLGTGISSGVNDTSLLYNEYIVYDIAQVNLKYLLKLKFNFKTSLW
T1 sequence (Q9UGN5 whole entry, the tested form may be a part): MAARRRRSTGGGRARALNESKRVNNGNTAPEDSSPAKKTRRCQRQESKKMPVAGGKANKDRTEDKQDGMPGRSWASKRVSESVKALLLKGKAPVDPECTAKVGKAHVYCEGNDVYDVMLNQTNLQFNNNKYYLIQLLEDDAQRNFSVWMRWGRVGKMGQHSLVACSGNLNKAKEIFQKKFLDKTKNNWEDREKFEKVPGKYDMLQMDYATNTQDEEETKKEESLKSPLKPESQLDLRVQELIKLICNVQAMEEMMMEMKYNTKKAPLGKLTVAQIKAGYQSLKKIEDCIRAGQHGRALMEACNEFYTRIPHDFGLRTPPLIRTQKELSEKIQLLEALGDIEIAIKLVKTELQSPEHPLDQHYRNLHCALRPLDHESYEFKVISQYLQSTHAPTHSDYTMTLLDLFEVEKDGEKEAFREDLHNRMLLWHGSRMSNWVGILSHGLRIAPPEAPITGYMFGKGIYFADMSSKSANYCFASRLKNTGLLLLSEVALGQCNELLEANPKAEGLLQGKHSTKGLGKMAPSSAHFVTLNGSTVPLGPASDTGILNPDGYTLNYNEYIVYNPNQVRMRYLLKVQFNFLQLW

| SMILES | Kd ([1]; probe displacement HTRF) [nM] | Kd [2, 4] [nM] | IC50 [3, 5] [nM] | Kd ([1]; PARP2 probe displacement HTRF) [nM] | Kd [2, 6] [nM] | IC50 [3, 7] [nM] | Kd [2, 8] [nM] | Selectivity ([2]; probe displacement HTRF) |
| --- | --- | --- | --- | --- | --- | --- | --- | --- |
| N#Cc1nc(C(=O)NC2CC2)ccc1N1CCC(N2CCC(c3cc4cccc(F)c4c(=O)[nH]3)C2)CC1 (single isomer, unassigned) [Compound 410a] | 100 to 1000 | < 10 | < 10 | – | – | – | – | +++ (+++ indicate a value of at least 100) |
| N#Cc1nc(C(=O)NC2CC2)ccc1N1CCC(N2CCC(c3cc4cccc(F)c4c(=O)[nH]3)C2)CC1 (single isomer, unassigned) [Compound 410b] | 100 to 1000 | < 10 | < 10 | – | – | – | – | +++ (+++ indicate a value of at least 100) |
| CNC(=O)c1ccc(OCCCN2CCC(c3nc4ccccc4c(=O)[nH]3)CC2)cn1 [Compound 2, N-methyl-5-(3-(4-(4-oxo-3,4-dihydroquinazolin-2-yl)piperidin-1-yl)propoxy)picolinamide] | – | – | – | 1000 to 10000 | < 10 | < 10 | – | +++ (+++ indicate a value of at least 100) |
| CNC(=O)c1ccc(N2CCC(n3cc(-c4nc5ccccc5c(=O)[nH]4)cn3)CC2)cn1 [Compound 17, N-methyl-5-(4-(4-(4-oxo-3,4-dihydroquinazolin-2-yl)-1H-pyrazol-1-yl)piperidin-1-yl)picolinamide] | – | – | – | > 10000 | 10 to 100 | 10 to 100 | – | +++ (+++ indicate a value of at least 100) |
| CNC(=O)c1ccc(OCCN2CCC(c3nc4ccccc4c(=O)[nH]3)CC2)cn1 [Compound 63] | – | – | – | 1000 to 10000 | 10 to 100 | < 10 | – | ++ (++ indicates a value of 50 to less than 100) |
| CNC(=O)c1ccc(N2CCC(N3CC4CC(c5nc6ccccc6c(=O)[nH]5)(C4)C3)CC2)cn1 [Compound 168] | – | – | – | > 10000 | < 10 | < 10 | – | +++ (+++ indicate a value of at least 100) |
| CNC(=O)c1ccc(N2CCC(N3CC4(c5nc6cccc(F)c6c(=O)[nH]5)CC3C4)CC2)cn1 [Compound 227] | 100 to 1000 | – | < 10 | – | – | – | < 10 | +++ (+++ indicate a value of at least 100) |
| CNC(=O)c1ccc(N2CCC(N3CC4(c5nc6ccc(F)cc6c(=O)[nH]5)CC3C4)CC2)cn1 [Compound 238] | 100 to 1000 | – | < 10 | – | – | – | < 10 | +++ (+++ indicate a value of at least 100) |
| CNC(=O)c1ccc(N2CCC(N3CC4(c5nc6ccccc6c(=O)[nH]5)CC3(CO)C4)CC2)cn1 [Compound 284] | > 10000 | – | < 10 | – | – | – | < 10 | +++ (+++ indicate a value of at least 100) |
| CNC(=O)c1ccc(N2CCC(N3CC4(c5nc6ncccc6c(=O)[nH]5)CC3C4)CC2)c(F)n1 [Compound 303] | > 10000 | – | < 10 | – | – | – | < 10 | +++ (+++ indicate a value of at least 100) |
| CNC(=O)c1ccc(N2CCC(N3CC4(c5nc6ccncc6c(=O)[nH]5)CC3C4)CC2)c(F)n1 [Compound 305] | > 10000 | – | < 10 | – | – | – | < 10 | +++ (+++ indicate a value of at least 100) |
| CCc1cnc(C23CC(C2)N(C2CCN(c4ccc(C(=O)NC)nc4C(F)(F)F)CC2)C3)[nH]c1=O [Compound 310] | > 10000 | – | 10 to 100 | – | – | – | < 10 | +++ (+++ indicate a value of at least 100) |
| CNC(=O)c1ccc(N2CCC(N3CC4(c5nc6ncccc6c(=O)[nH]5)CC3C4)CC2)cn1 [Compound 311] | 1000 to 10000 | – | < 10 | – | – | – | < 10 | +++ (+++ indicate a value of at least 100) |
| CNC(=O)c1ccc(N2CCC(N3CC4(c5nc6c(c(=O)[nH]5)CCCC6)CC3C4)CC2)cn1 [Compound 361, N-methyl-5-(4-(4-(4-oxo-3,4,5,6,7,8-hexahydroquinazolin-2-yl)-2-azabicyclo[2.1.1]hexan-2-yl)piperidin-1-yl)picolinamide] | 100 to 1000 | – | < 10 | – | – | – | < 10 | +++ (+++ indicate a value of at least 100) |
| CNC(=O)c1ccc(N2CCC(N3CC4(c5nc6ncc(F)cc6c(=O)[nH]5)CC3C4)CC2)cn1 [Compound 368] | > 10000 | – | < 10 | – | – | – | < 10 | +++ (+++ indicate a value of at least 100) |
| CNC(=O)c1ccc(N2CCC(N3CC4(c5nc6ncc(F)cc6c(=O)[nH]5)CC3C4)CC2)c(F)n1 [Compound 369] | 1000 to 10000 | – | < 10 | – | – | – | < 10 | +++ (+++ indicate a value of at least 100) |
| CNC(=O)c1ccc(N2CCC(N3CC4(c5nc6c(c(=O)[nH]5)COCC6)CC3C4)CC2)cn1 [Compound 373] | 1000 to 10000 | – | < 10 | – | – | – | < 10 | +++ (+++ indicate a value of at least 100) |

Now from value to compound, other results behind:

| Kd ([1]; probe displacement HTRF) [nM] | Kd [2, 4] [nM] | IC50 [3, 5] [nM] | Kd ([1]; PARP2 probe displacement HTRF) [nM] | Kd [2, 6] [nM] | IC50 [3, 7] [nM] | Kd [2, 8] [nM] | SMILES | Selectivity ([2]; probe displacement HTRF) |
| --- | --- | --- | --- | --- | --- | --- | --- | --- |
| 1000 to 10000 | 10 to 100 | 10 to 100 | – | – | – | – | CCc1ccc(C2CCN(C3CCN(c4cnc(C(=O)NC5CC5)c(F)c4)CC3)C2)[nH]c1=O (single isomer, unassigned) [Compound 408b] | + (+ indicates a value of 10 to less than 50) |
| 1000 to 10000 | < 10 | < 10 | – | – | – | – | CCc1ccc(C2CCN(C3CCN(c4ccc(C(=O)NC5CC5)nc4C#N)CC3)C2)[nH]c1=O (single isomer, unassigned) [Compound 409a] | +++ (+++ indicate a value of at least 100) |
| 100 to 1000 | < 10 | < 10 | – | – | – | – | CCc1ccc(C2CCN(C3CCN(c4ccc(C(=O)NC5CC5)nc4C#N)CC3)C2)[nH]c1=O (single isomer, unassigned) [Compound 409b] | +++ (+++ indicate a value of at least 100) |
| – | – | – | > 10000 | < 10 | < 10 | – | CNC(=O)c1ccc(N2CCC(CN3CCC(c4nc5ccccc5c(=O)[nH]4)CC3)CC2)cn1 [Compound 8, N-methyl-5-(4-((4-(4-oxo-3,4-dihydroquinazolin-2-yl)piperidin-1-yl)methyl)piperidin-1-yl)picolinamide] | +++ (+++ indicate a value of at least 100) |
| – | – | – | > 10000 | 10 to 100 | 10 to 100 | – | CCc1cnc(-c2cnn(C3CCN(c4ccc(C(=O)NC)nc4)CC3)c2)[nH]c1=O [Compound 20] | ++ (++ indicates a value of 50 to less than 100) |
| – | – | – | 1000 to 10000 | 10 to 100 | 10 to 100 | – | CNC(=O)c1ccc(N2CCC(N3CC(c4nc5ccccc5c(=O)[nH]4)C3)CC2)cn1 [Compound 27] | + (+ indicates a value of 10 to less than 50) |
| – | – | – | > 10000 | < 10 | < 10 | – | CNC(=O)c1ccc(N2CCC(C(=O)N3CCC(c4nc5ccccc5c(=O)[nH]4)CC3)CC2)cn1 [Compound 36] | +++ (+++ indicate a value of at least 100) |
| – | – | – | 100 to 1000 | < 10 | < 10 | – | CNC(=O)c1ccc(N2CCC(CN3CCC(c4nc5c(Cl)cccc5c(=O)[nH]4)CC3)CC2)cn1 [Compound 40, 5-(4-((4-(8-chloro-4-oxo-3,4-dihydroquinazolin-2-yl)piperidin-1-yl)methyl)piperidin-1-yl)-N-methylpicolinamide] | ++ (++ indicates a value of 50 to less than 100) |
| – | – | – | > 10000 | 100 to 1000 | 100 to 1000 | – | CCc1cnc(C2CCN(C(=O)C3CCN(c4ccc(C(=O)NC)nc4)CC3)CC2)[nH]c1=O [Compound 41] | + (+ indicates a value of 10 to less than 50) |
| – | – | – | 100 to 1000 | < 10 | < 10 | – | CNC(=O)c1ccc(N2CC(CN3CCC(c4nc5ccccc5c(=O)[nH]4)CC3)C2)cn1 [Compound 45] | +++ (+++ indicate a value of at least 100) |
| – | – | – | > 10000 | 100 to 1000 | 100 to 1000 | – | CCc1ccc(C2CCN(CC3CCN(c4ccc(C(=O)NC)nc4)CC3)CC2)[nH]c1=O [Compound 47] | − (− indicates a value of less than 10) |
| – | – | – | 100 to 1000 | < 10 | < 10 | – | CNC(=O)c1ccc(N2CC(N3CCC(Cc4nc5ccccc5c(=O)[nH]4)CC3)C2)cn1 [Compound 48] | +++ (+++ indicate a value of at least 100) |
| – | – | – | 100 to 1000 | < 10 | < 10 | – | CNC(=O)c1ccc(N2CCC(N3CCC(Cc4nc5ccccc5c(=O)[nH]4)CC3)CC2)cn1 [Compound 54, N-methyl-5-(4-{4-[(4-oxo-3H-quinazolin-2-yl)methyl]piperidin-1-yl}piperidin-1-yl)pyridine-2-carboxamide] | +++ (+++ indicate a value of at least 100) |
| – | – | – | > 10000 | 100 to 1000 | 1000 to 10000 | – | CNC(=O)c1ccc(N2CCC(C(=O)N3CCC(c4ncc(C(F)(F)F)c(=O)[nH]4)CC3)CC2)cn1 [Compound 59] | − (− indicates a value of less than 10) |
| – | – | – | 1000 to 10000 | 10 to 100 | 10 to 100 | – | CNC(=O)c1ccc(N2CCC(CN3CC4(c5nc6ccccc6c(=O)[nH]5)CC3C4)CC2)cn1 [Compound 193] | +++ (+++ indicate a value of at least 100) |
| > 10000 | – | < 10 | – | – | – | 10 to 100 | CNC(=O)c1ccc(N2CCC(N3CC4(c5nc6ccncc6c(=O)[nH]5)CC3C4)CC2)cn1 [Compound 304] | +++ (+++ indicate a value of at least 100) |
